Measured values taken from PubChem BioAssay (NCI).
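48-hour exposure; five concentrations; linearly interpolated endpoints. At the GI50, growth is halved. TGI denotes the concentration required for complete inhibition of growth.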

What was measured:
Experiment in all cases: NCI anticancer screen, dose series, 48 h
EKVX NSCLC = system: EKVX NSCLC
LOX IMVI melanoma = system: LOX IMVI melanoma
MOLT-4 leukemia = system: MOLT-4 leukemia
NCI-H460 lung = system: NCI-H460 lung
NCI-H522 lung = system: NCI-H522 lung
OVCAR-8 ovarian = system: OVCAR-8 ovarian
RXF 393 renal = system: RXF 393 renal
U251 CNS = system: U251 CNS
UACC-62 melanoma = system: UACC-62 melanoma
BT-549 breast = system: BT-549 breast
RPMI-8226 leukemia = system: RPMI-8226 leukemia

Structure (SMILES) | TGI (EKVX NSCLC) | TGI (LOX IMVI melanoma) | TGI (MOLT-4 leukemia) | TGI (NCI-H460 lung) | TGI (NCI-H522 lung) | TGI (OVCAR-8 ovarian) | TGI (RXF 393 renal) | TGI (U251 CNS) | TGI (UACC-62 melanoma) | TGI (BT-549 breast) | TGI (RPMI-8226 leukemia) | GI50 (MOLT-4 leukemia) | GI50 (NCI-H522 lung) | GI50 (UACC-62 melanoma) | GI50 (BT-549 breast) | GI50 (EKVX NSCLC) | GI50 (NCI-H460 lung) | GI50 (OVCAR-8 ovarian) | GI50 (RPMI-8226 leukemia) | GI50 (RXF 393 renal)
CCCCCCCCCC/C=C/C=O | > 100 µM | > 100 µM | > 100 µM | > 100 µM | > 100 µM | > 100 µM | > 100 µM | > 100 µM | > 100 µM | – | – | – | – | – | – | – | – | – | – | –
CN1CCN(c2ccc3[nH]c(C4=C(O)C(=O)[C@@H]5C(=C4O)N=C(CO)N5C)nc3n2)CC1 | > 100 µM | > 100 µM | > 100 µM | > 100 µM | > 100 µM | > 100 µM | > 100 µM | > 100 µM | > 100 µM | > 100 µM | > 100 µM | – | – | – | – | – | – | – | – | –
Cc1cc(C)c(NC(=O)/C=C/c2ccccc2)c(C)c1 | > 100 µM | – | > 100 µM | > 100 µM | 61.8 µM | > 100 µM | > 100 µM | > 100 µM | 93.8 µM | > 100 µM | > 100 µM | – | – | – | – | – | – | – | – | –
C=CC(=O)NCNC(=O)C=C | > 100 µM | > 100 µM | > 100 µM | > 100 µM | > 100 µM | > 100 µM | – | > 100 µM | > 100 µM | – | > 100 µM | – | – | – | – | – | – | – | – | –
O=C1/C(=C/c2ccc(Cl)cc2)N=C(c2ccccc2)N1/N=C/c1ccccc1O | 21.3 µM | 31.4 µM | 38.9 µM | 79.2 µM | 35.6 µM | 34.6 µM | 29.5 µM | 18.6 µM | 30.3 µM | 39.6 µM | 24.8 µM | – | – | – | – | – | – | – | – | –
CCP(=O)(CC)C(Cl)(Cl)C(O)C(Cl)(Cl)Cl (centres undefined) | – | > 100 µM | > 100 µM | > 100 µM | > 100 µM | > 100 µM | – | > 100 µM | – | – | > 100 µM | – | – | – | – | – | – | – | – | –
C#C[C@]1(O)[C@@H](CO)O[C@@H](n2ccc(N)nc2=O)[C@@H]1O | > 19.9 µM | 0.0945 µM | > 32 µM | 0.508 µM | 0.0365 µM | > 100 µM | 2.12 µM | – | 0.4 µM | 22.2 µM | 0.192 µM | – | – | – | – | – | – | – | – | –
NCCCn1c2c(c3ccc([N+](=O)[O-])cc3c1=O)C(=O)c1cc(F)ccc1-2 | – | – | – | – | 0.116 µM | – | – | – | 0.165 µM | – | – | < 0.01 µM | < 0.01 µM | 0.036 µM | – | – | – | – | – | –
COc1cc(/C=C/C(=O)c2ccc(F)cc2)ccc1OCCCCCOc1cc2c(cc1OC)C(=O)N1CCCC1C=N2 (centres undefined) | 0.601 µM | – | 0.0418 µM | 0.0179 µM | 0.249 µM | 3.28 µM | 0.283 µM | – | 0.222 µM | 0.0974 µM | 0.0383 µM | < 0.01 µM | 0.0318 µM | 0.0582 µM | 0.0214 µM | 0.151 µM | < 0.01 µM | 0.0253 µM | 0.0101 µM | 0.11 µM
NC(Cc1ccccc1)c1nn[nH]n1 (centres undefined) | > 100 µM | > 100 µM | – | > 100 µM | > 100 µM | > 100 µM | > 100 µM | > 100 µM | > 100 µM | > 100 µM | > 100 µM | – | – | – | – | – | – | – | – | –
CC(C)OC(=O)NNc1cccc(Cl)c1 | > 100 µM | > 100 µM | > 100 µM | > 100 µM | – | > 100 µM | > 100 µM | > 100 µM | > 100 µM | – | > 100 µM | – | – | – | – | – | – | – | – | –
